From PubChem BioAssay AID449764 (Southern Research Specialized Biocontainment Screening …, 2010)

Test system: Mycobacterium tuberculosis H37Rv growth inhibition, no glycerol
Experiment: Confirmatory growth inhibition assay, Mycobacterium tuberculosis H37Rv, absence of glycerol (AID 449764);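 also: growth read after 7 days of incubation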
Details: for IC90: measured here: IC90 growth inhibition

O=C(NCC(c1cccs1)N1CCOCC1)c1cc([N+](=O)[O-])cc([N+](=O)[O-])c1 (centres undefined)
IC50: 0.81 µM | IC90: 1.5 µM

O=C1CC(/C=C/c2ccc(Cl)cc2)=Nc2ccccc2N1
IC50: 12.2 µM | IC90: 14.2 µM

CN1/C(=C\C(=O)C[n+]2ccc(C(=O)c3ccccc3)cc2)C(C)(C)c2ccccc21
IC50: 13.3 µM | IC90: 21.1 µM

CC(C)n1cnc2c(NCc3ccccc3)cc(Cc3ccc(F)cc3)cc21
IC50: 34.4 µM | IC90: 49.3 µM

CN(C)CCCNC(=O)c1ccc(-c2nc(-c3ccc(Cl)cc3)cs2)cc1
IC50: 26.4 µM | IC90: 33.8 µM

CCCCCc1nc2c(c(=O)c3ccccc3n2C)c(=O)n1C1CCCCCC1
IC50: 55.6 µM | IC90: 77.5 µM

Cc1cc(C(=O)CCl)c(C)n1CCc1ccc(Cl)cc1
IC50: 3.95 µM | IC90: 9.41 µM

CCCCS(=O)(=O)/C=C\C=C/S(=O)(=O)CCCC
IC50: 2.24 µM | IC90: 2.92 µM

CCCCCCCCn1cnc2c(N)c(C)c(C)cc21
IC50: 59.8 µM | IC90: 78.3 µM

COc1cccc(CC2(CO)CCCN(Cc3[nH]c4ccc(C)cc4c3C)C2)c1 (centres undefined)
IC50: 40.8 µM | IC90: 55.8 µM

O=c1cc(/C=C/c2ccccc2)oc2ccccc12
IC50: 97.6 µM | IC90: > 100 µM

Cc1cc(-c2ccc(Cl)cc2)c2cnn(C(C)C)c2n1
IC50: 38.9 µM | IC90: 58.1 µM

COc1ccc(-c2nc(CN3CCN(c4cc(C)nc(C)c4)CC3)c(C)o2)c2ccccc12
IC50: 23.4 µM | IC90: 25.6 µM

CCN(CC)C(=O)c1cc([N+](=O)[O-])cc2c1-c1ccc([N+](=O)[O-])cc1C2=C(C#N)C#N
IC50: 21.7 µM | IC90: 24.3 µM

CCOc1cc(/C=N/Nc2nc(Nc3ccccc3)nc(N3CCCCC3)n2)ccc1OCC(=O)O
IC50: 20.5 µM | IC90: 27.6 µM

Cc1ccc(C)c(N2CCN(C(=O)c3ccc4nc(N5CCOCC5)sc4c3)CC2)c1
IC50: 35.2 µM | IC90: 47.6 µM

Cc1ccc(NCc2ccc(O)c3ncccc23)cc1C
IC50: 96.3 µM | IC90: > 100 µM

CS/C(Nc1cc(Cl)ccc1Cl)=C(/C#N)C(=O)c1ccco1
IC50: 20.4 µM | IC90: > 100 µM

CCOc1ccc(NC(=S)Nc2ccc(C)c([N+](=O)[O-])c2)cc1
IC50: 27.7 µM | IC90: > 100 µM

CCOc1cccc2cc(C(=O)Nc3nccs3)c(=O)oc12
IC50: 2.4 µM | IC90: 15.3 µM

Clc1cc(Cl)cc(Nc2ncn[nH]2)c1
IC50: 64.6 µM | IC90: > 100 µM

NCCCn1c(C(=O)c2ccc(Cl)cc2)c2ccc([N+](=O)[O-])cc2[n+]1[O-]
IC50: 34 µM | IC90: 44.2 µM

O=C(c1ccc(-c2cccc(C(F)(F)F)c2)o1)N1CCN(c2ccccc2O)CC1
IC50: 24 µM | IC90: 27.5 µM

O=C(C1=C[C@@H](c2csc3ccccc23)C[C@@H](OCCCCO)O1)N1CCN(Cc2ccc3c(c2)OCO3)CC1
IC50: 33.9 µM | IC90: 53.6 µM

Clc1cccc(-c2cc3nc4c(c(NCc5ccco5)n3n2)CCCC4)c1
IC50: 22.1 µM | IC90: 24.7 µM

COc1ccc(NC(C)C(=O)Nc2ccc(C(C)(C)C)cc2)cc1Cl (centres undefined)
IC50: 94.1 µM | IC90: > 100 µM

C=CCOc1ccccc1CN(C(=O)CCl)c1ccc2c(c1)OCO2
IC50: 2.7 µM | IC90: 3.72 µM

O=C(Nc1ccc(N2CCN(C(=O)c3ccco3)CC2)cc1)C(c1ccccc1)c1ccccc1
IC50: 24.1 µM | IC90: 27.2 µM

O=C(Nc1nc2nc(-c3ccccc3)cc(=O)n2[nH]1)c1ccccc1
IC50: 22.8 µM | IC90: > 100 µM

COC(=O)CN1C(c2ccc(Cl)cc2)=Nc2ccc(Cl)cc2C1c1ccccc1 (centres undefined)
IC50: 23 µM | IC90: 24.8 µM

CCOc1ccc(NC(=O)CSc2nc(O)c(C)c(=O)n2-c2ccc(F)cc2)cc1
IC50: 34.7 µM | IC90: 59.2 µM

Nc1c(N(CCC2=CCCCC2)C(=O)c2ccc([N+](=O)[O-])o2)c(=O)[nH]c(=O)n1Cc1ccccc1
IC50: 27.9 µM | IC90: 48.2 µM

O=C(CCc1nnc(CCCc2ccccc2)o1)NCCCC1CCCC1
IC50: 21.5 µM | IC90: 24.9 µM

CCn1c2ccccc2c2cc(CNCc3ccc(OC)cc3OC)ccc21
IC50: 12.2 µM | IC90: 14 µM

CCCCNc1c(-c2ccc(SC3CCCCC3)c(OC)c2)nc2ccc(C)cn12
IC50: 11.8 µM | IC90: 13.5 µM

c1ccc(/N=C2\N=C(Nc3ccccn3)c3ccccc32)nc1
IC50: 2.05 µM | IC90: 3.02 µM

Cn1nc(-c2ccc(N3CCCCC3)c(NC(=O)c3ccco3)c2)c2ccccc2c1=O
IC50: 8.18 µM | IC90: 12.2 µM

CCOc1cccc(/C=C/c2ccc3cccc(O)c3n2)c1O
IC50: 4.28 µM | IC90: > 100 µM

COCCCNC(=O)/C(C#N)=C/c1c(N2CCN(c3cccc(Cl)c3)CC2)nc2c(C)cccn2c1=O
IC50: 38.5 µM | IC90: > 100 µM

CC(C)(C)CC(C)(C)c1ccc(OCCOCC[N+](C)(C)Cc2ccccc2)cc1
IC50: 42.8 µM | IC90: 47.1 µM

Cn1c(=O)n(Cc2ccccc2)c(=O)c2c1nc1n2CCCN1C1CCCCC1
IC90: > 100 µM

N#Cc1cccc2c1-c1ccccc1/C2=N/NC(N)=O
IC90: > 100 µM

COC(=O)CCn1c(C)cc(C(=O)COc2ccccc2C(N)=O)c1C
IC50: 10.9 µM | IC90: 14.8 µM

Cc1ccccc1-n1sc2cc(F)ccc2c1=O
IC50: 22 µM | IC90: 24.6 µM

CC(=O)Nc1ccc(N2C(C(C)=O)=NN(c3ccc(Cl)cc3)C2c2sccc2C)cc1 (centres undefined)
IC50: 66.6 µM | IC90: 83.9 µM

COC(=O)c1ccc2c(c1O)C(=O)c1ccccc1C2=O
IC50: 83.6 µM | IC90: 89.4 µM

Cc1cc(Cl)ccc1NNC(=O)CCc1ccccc1
IC50: 84.1 µM | IC90: > 100 µM

CC1(C)c2cc(Cl)ccc2-n2c1cc(O)c(-c1ccccc1)c2=O
IC50: 8.61 µM | IC90: 18.1 µM

O=C(Nc1nc2ccccc2[nH]1)C12CC3CC(CC(C3)C1)C2
IC50: 13.5 µM | IC90: > 100 µM

Cc1nn(Cc2ccccc2)c(C)c1NC(=O)c1cc2nc(-c3ccco3)cc(C(F)(F)F)n2n1
IC50: 45.8 µM | IC90: 49.6 µM

CC(C)(C)NC(=O)C(c1c[nH]c2ccccc12)N(C(=O)Cn1nnc(-c2ccc(F)cc2)n1)c1cccc(O)c1 (centres undefined)
IC50: 34.7 µM | IC90: 45.6 µM

CCn1c2ccccc2c2cc(CN3CCN(Cc4cc(OC)ccc4O)CC3)ccc21
IC50: 17.2 µM | IC90: 23.4 µM

CCNc1nc(Nc2ccc(C)c(Cl)c2)c2cnn(C)c2n1
IC50: 70 µM | IC90: > 100 µM

CC(C)COCc1ccc(O)c2ncccc12
IC50: 2.18 µM | IC90: 2.59 µM

O=C(Oc1ccccc1-c1nnco1)c1ccc(Cl)cc1
IC50: 27.8 µM | IC90: 73.6 µM

CCCCN1C(=N)N([C@@H](CCC)CN2CCC[C@H]2CN2C(N)=NC[C@@H]2Cc2ccccc2)C[C@H]1Cc1ccccc1
IC50: 23.9 µM | IC90: 27.6 µM

COc1ccc2c3n(nc2c1)CCN=C3c1cc(Cl)c(N)c(Cl)c1
IC50: 94.1 µM | IC90: 97.7 µM

O=C(N/N=C\c1ccc[nH]1)c1cncc(Br)c1
IC50: 45.3 µM | IC90: 50.8 µM

Cn1ccc(=Nc2ccc(NC(=O)c3ccc(N=c4ccn(C)c5ccc([N+](=O)[O-])cc45)cc3)cc2)cc1
IC50: < 0.2 µM | IC90: < 0.2 µM

Cc1ccc(N(CCC#N)C(=O)CCl)cc1C
IC50: 5.11 µM | IC90: 8.42 µM

COc1ccc(-n2cc(CNCCc3cscn3)c(-c3ccccc3Cl)n2)cc1
IC50: 27.8 µM | IC90: 35.9 µM

O=C(OCc1ccccc1)/C(=C(\O)c1ccccc1Br)c1ccc(-c2ccccc2)cn1
IC50: 35.4 µM | IC90: 49.3 µM

Cc1cc(C)c2ccc(NN)nc2c1O
IC50: 4.04 µM | IC90: 4.87 µM

CCOc1ccc(-c2cc(C)[n+](CCc3ccc(OC)c(OC)c3)c(-c3ccc(OCC)cc3)c2)cc1
IC50: 1.66 µM | IC90: 2.52 µM

N#CC(C(=O)NCc1ccco1)c1nc2ccccc2nc1N1CCOCC1 (centres undefined)
IC50: 43 µM | IC90: 47.2 µM

CCOC(=O)c1c(C)n(-c2ccc(C)cc2)c2ccc(OCC(O)CNCC3CCCO3)cc12 (centres undefined)
IC50: 22.8 µM | IC90: 25.7 µM

Cc1cc(/C=C\c2ccc3cc(N(C)C)ccc3[n+]2C)c(C)n1-c1ccccc1
IC50: 3.26 µM | IC90: 4.49 µM

CCOc1ncccc1C(=O)OCC(=O)N1CCc2ccccc21
IC50: 25.5 µM | IC90: > 100 µM

CCc1ccc(C2c3[nH]c4ccccc4c3CCN2C(=O)c2ccc(=O)n(C)n2)cc1 (centres undefined)
IC50: 51.3 µM | IC90: 93.4 µM

O=C(CCSc1ccccn1)c1ccccc1
IC50: 24.6 µM | IC90: 34.1 µM

CN(C)c1ccc(-c2cc(O)c3ncccc3c2)cc1
IC50: 2.63 µM | IC90: 3.53 µM

Cc1ccc(-n2nc3c(N4CCC(C(=O)NCc5ccccc5C)CC4)nnc(C)c3c2C)cc1
IC50: 71.8 µM | IC90: > 100 µM

C=CC[n+]1ccn(-c2nc3ccccc3nc2[N-]S(=O)(=O)c2cccs2)c1
IC50: 42.6 µM | IC90: 48.1 µM

Oc1cccc(-c2nc3ccc4ccccc4c3c3c2CCC3)c1
IC50: 32.4 µM | IC90: 54.3 µM

CCC(C)c1ccc2oc(-c3ccc(NC(=O)c4ncn[nH]4)cc3)nc2c1 (centres undefined)
IC50: 8.12 µM | IC90: 33 µM

C/C(=N\NC(=S)NCC(C)(C)C)c1cc(F)cc(F)c1O
IC50: 9.33 µM | IC90: 37.1 µM

Cc1cc(NC2CCCCC2)nc(-c2ccccc2O)n1
IC50: 35.9 µM | IC90: 50.2 µM

O=c1[nH]c2ccccc2c2oc(CCl)nc12
IC50: 7.37 µM | IC90: 22.1 µM

COc1cc2c(cc1OC)CN(CCC(=O)c1ccc(Br)cc1)CC2
IC50: 23.4 µM | IC90: 26.7 µM

CCOC(=O)C(/C=C(\C#N)C(=O)OCC)=C(/N)N1CCN(c2ccc(Cl)cc2)CC1
IC50: 11.9 µM | IC90: > 25 µM

COc1ccc2cc1Oc1ccc(cc1)C[C@H]1c3c(cc(OC)c4c3Oc3c(ccc5c3[C@H](C2)N(C)CC5)O4)CCN1C
IC50: 5.54 µM | IC90: 6.24 µM

CCOC(=O)c1ccc(NC2=CC(=O)C(=O)c3ccccc32)cc1
IC50: 37.7 µM | IC90: 48.3 µM

C[n+]1c(-c2ccccc2)c2cc(N)ccc2c2ccc(N)cc21
IC50: 16.4 µM | IC90: 20.9 µM

Cc1cc(CC(C)C)n(-c2nc3ccccc3c(=O)n2OCC(N)=O)n1
IC50: 11.2 µM | IC90: 20.6 µM

O=C(Oc1ccc2ccccc2c1)c1cncc(Br)c1
IC50: 55.3 µM | IC90: > 100 µM

CCCCN(C)CCNC(=O)c1ccc(Cn2c(=S)[nH]c3ccc(Br)cc3c2=O)cc1
IC50: 18.9 µM | IC90: 27.9 µM

O=C(CSc1nnnn1C1CCCCC1)Nc1nc2c(s1)CCCC2
IC50: 46.9 µM | IC90: 53.1 µM

Nc1ccccc1C#CC(=O)c1ccccc1
IC50: 4.11 µM | IC90: 21.7 µM
